Experimental findings from ChEMBL document CHEMBL1129004, “Synthesis and in vitro cytotoxicity of cis-(glycolato-O,O)-[2-substituted-(4R,5R)-4,5-bis(aminomethyl)-1,3-dioxolane]platinum (II)” (Bioorg Med Chem Lett, 1996) are described below.

Format in all cases: functional, cell-based
The test system of assay [1] is PC-9. In words: Compound was tested in vitro for cytotoxic activity against PC-9 human non-small cell lung cancer cell line by MTT assay. On the technique in general: Formazan colour is commonly taken as a measure of viable cells.
The test system of assay [2] is PC-14. The experiment in a line: Compound was tested in vitro for cytotoxic activity against PC-14 human non-small cell lung cancer cell line by MTT assay.
Assay [3] deals with MKN-45. The experiment in a line: Compound was tested in vitro for cytotoxic activity against MKN-45 human stomach cancer cell line by MTT assay.
Assay [4] concerns KATO III stomach cancer cell line. In words: Compound was tested in vitro for cytotoxic activity against KATO III human stomach cancer cell line by MTT assay.

A word on the IC50: it is the midpoint of a concentration-inhibition curve. Read a low IC50 as greater potency in that assay. Regarding CARBOPLATIN, the IC50 was found to be 60.5 µM in assay [1], 9.7 µM in assay [2], 32.4 µM in assay [3] and 49.7 µM in assay [4].

For CISPLATIN, the IC50 in assay [1] amounted to 5 µM; in assay [2] it was 1.5 µM; in assay [3] it was 3.7 µM; in assay [4], 5.2 µM.
